In US20220273628A1, “EFFECTS OF LYSERGIC ACID DIETHYLAMIDE (LSD) AND OF LSD ANALOGS TO ASSIST PSY[…] G[…] DISORDER OR OTHER ANXIETY NOT RELATED TO LIFE-T[…]” (Universitätsspital Basel, priority 2021, published 2022):

Experiments:
[1] = test system: patients with anxiety disorder without somatic illness; assay: Randomized, double-blind, placebo-controlled phase II cross-over study of LSD: ratings of anxiety, depression and psychological distress; assay type: in vivo, human
Procedure: Specifically, in patients with generalized anxiety disorder, LSD or placebo was administered in double-blind manner in two sessions separated by 6 weeks and anxiety, depression and psychological distress were assessed between sessions, 2, 8, and 16 weeks after the second session. Then patients who received LSD crossed over to placebo and vice versa.
The examples study used a double-blind cross-over design with two treatment sequences each lasting 24 weeks (LSD vs. placebo-assisted psychotherapy) and separated by a […] between-sequence period. Order was counter-balanced and random. Each participant served as its own control over the 52-weeks total study duration. Treatment effects are also compared between subjects for the first 24 week study period before the cross-over.
Each of the four LSD/Placebo sessions lasted 12 hours from 8 AM to 8 PM. Sessions took place in a quiet room at the Ambulatory Study Center of the University Hospital Basel (Basel center) or in the private practice office of Dr. P. Gasser (Solothurn center). At the beginning of the session, current mood and mental state were discussed and a urine drug screen was taken and any AEs since the last visit were recorded. Any open questions or concerns were addressed by the investigator. The participants were advised to lie in a bed or sit comfortably on a chair. Other than going to the bathroom, the participants remained in the treatment room for the entire 12-hour experimental session and were supervised constantly up to 8-12 hours after LSD/placebo administration depending on the participant's response and as needed. The subjective effects of LSD at the dose used in this study were expected to last 8-12 hours (Gasser et al., 2014; Holze et al., 2021; Schmid et al., 2015). […] During the LSD/placebo effect, the participants were instructed to focus their awareness inward. Subjects were encouraged to wear eye shades during the first hours (or the light was dimmed) as well as to listen to music and discussions/talking much with the investigator were discouraged. Subjects were allowed to remain mostly undisturbed with brief physical contacts every two hours when heart rate and blood pressure were measured. At the end of the sessions, 10-12 hours after LSD/placebo administration, the acute subjective peak effects were retrospectively rated by the participants using the 5D-ASC, SCQ, AMRS, and VASs and the experience was discussed. Ten-twelve hours after LSD/placebo administration the participants were allowed to return to their home with company and supervision provided by the partner, a relative, or a friend. If supervision was not available or if effects persisted, the night was spent at the study site.
The STAI is a widely used self-report instrument for assessing anxiety in adults. It includes separate measures of state and trait anxiety (Spielberger et al., 1983). The STAI evaluates the essential qualities of feelings of apprehension, tension, nervousness, and worry. The STAI differentiates between the temporary condition of state anxiety and the more general and long-standing quality of trait anxiety. The STAI state anxiety subscale asks for feelings at the moment of filling out the questionnaire, and the STAI trait anxiety subscale ask subjects to indicate how they generally view themselves. For both subscales, scores from 20 to 39 represent mild anxiety, and scores from 40 to 59 indicated moderate anxiety, whereas scores from 60 to 80 indicated severe anxiety. Both the state and trait STAI are commonly used as outcome measures in studies in patients with anxiety disorder (Fisher et al., 1999; Laakmann et al., 1998). A global STAI score can be derived by adding up the state and trait anxiety scale scores (range: 40-160 points). Similar to the pilot study both STAI scale scores were used to determine study inclusion at the screening visit (Gasser et al., 2014; Gasser et al., 2015). […]

[2] = test system: patients with anxiety disorder without somatic illness; assay: Same phase II study: adverse events; assay type: in vivo, human
Excerpt: Subjects were asked to report any adverse events (AEs) during the sessions or between study sessions at the beginning of the next session/visit and at the end of study (EOS) visit. The investigator rated hallucinogen-specific AEs that occurred during the session using a checklist adapted from (Gasser et al., 2014; Griffiths et al., 2006; Schmid et al., 2015). Peak effects were rated at the end of the session based on the patients description and investigators' observation by the investigator as “not reported”, “mild”, “moderate”, or “severe” for: headache, dizziness, dry mouth, nausea, anxiety, paranoid thinking, emotional distress, emotional lability, blurred vision, chills/feeling cold, impaired balance. Heart rate and blood pressure were measured at 2-hourly intervals (Grob et al., 2011).
AEs were described and recorded on the subject's CRF, regardless of the severity or relationship to the IMP. AEs were rated for severity and the potential relationship to the study interventions was evaluated by the investigator according standard criteria. Subjects with AEs were treated appropriately. Abnormal laboratory values not explained by the patients' disease had to be repeated until normal or until the abnormality caould be explained and the subject's safety was not at risk.

adrenergic α1 receptors = details: cited from earlier work
healthy participants = details: in vivo; cited from earlier work
[3] = 200 μg oral, cited from earlier work
[4] = between-subjects, after the first session, p=0.04
[5] = between-subjects, week 10 (2 weeks after the second dose), p=0.002
[6] = between-subjects, weeks 16 and 24, did not reach statistical significance
[7] = within-subjects, 2 weeks after the second administration, p=0.003
[8] = follow-up visits, not including treatment sessions

With CCN(CC)C(=O)[C@@H]1C=C2c3cccc4[nH]cc(c34)C[C@H]2N(C)C1 [LSD, lysergic acid diethylamide] the “STAI-S, STAI-T, STAI-G, HDRS, BDI and SCL-90 Global scores compared with baseline” value ([1]; LSD condition only, 19 patients, 2 weeks after the second treatment session, p=0.006, 0.01, 0.03, 0.02, 0.03) was “reduced scores on all outcome measures significantly”, the “STAI-S ratings compared with placebo” value ([1]; between-subjects, first period, week 10 (2 weeks after the second dose), 200 μg per os, p=0.008) was “significantly reduced” and the “STAI-S ratings compared with placebo” value ([1]; between-subjects, after the first session, p=0.03) was “significantly reduced”. The “HDRS scores compared with placebo” value [1, 4] was “already reduced scores”, the “STAI-G ratings compared with placebo” value [1, 4] was “significantly reduced” and the “STAI-T ratings compared with placebo” value ([1]; between-subjects, week 10 (2 weeks after the second dose), p=0.001) was “significantly reduced”. For the same molecule, the “HDRS scores compared with placebo” value [1, 5] was “significantly reduced”, the “STAI-G ratings compared with placebo” value [1, 5] was “significantly reduced” and the “SCL-90 Global scores compared with placebo” value ([1]; between-subjects, week 10, p=0.004) was “significantly reduced”. For the same molecule, the “BDI scores compared with placebo” value ([1]; between-subjects, week 10, p=0.02) was “significantly reduced”, the “SCL-90 Global compared with placebo” value ([1]; between-subjects, week 16 and week 24, did not reach statistical significance) was “remained reduced” and the “STAI-S ratings compared with placebo” value ([1]; between-subjects, weeks 16 and 24 (8 and 16 weeks after the second dose), did not reach statistical significance) was “continued to be reduced”. For the same molecule, the “STAI-G ratings compared with placebo” value [1, 6] was “continued to be reduced”, the “STAI-T ratings compared with placebo” value [1, 6] was “continued to be reduced” and the “STAI-S symptom score, difference from baseline, compared with placebo” value ([1]; within-subjects (19 patients), 2 weeks after the second administration, p=0.01) was “significantly reduced”. The “BDI symptom score, difference from baseline, compared with placebo” value ([1]; within-subjects, 2 weeks after the second administration, p=0.002) was “significantly reduced”, the “STAI-G symptom score, difference from baseline, compared with placebo” value [1, 7] was “significantly reduced” and the “STAI-T symptom score, difference from baseline, compared with placebo” value [1, 7] was “significantly reduced”. For the same molecule, the “SCL-90 Global symptom score, difference from baseline, compared with placebo” value ([1]; within-subjects, 2 weeks after the second administration, p=0.004) was “significantly reduced”, the “HDRS symptom score, difference from baseline, compared with placebo” value ([1]; within-subjects, 2 weeks after the second administration, p=0.03) was “significantly reduced” and the “tolerability after dose lowered” value ([2]; 100 μg instead of 200 μg, patient with paranoia SAE) was “tolerated well”. The “fatigue, total of reported AEs” value ([2]; all follow-up visits of the period, not including treatment sessions) was 9, the “anxiety at onset of the LSD effect” value ([2]; during the treatment session) was “two” and the headache ([2]; during the treatment session) was “one”. The nausea ([2]; during the treatment session) was “two”, the strong anxiety/paranoia ([2]; during the treatment session) was “one” and the “SAE: paranoia during the LSD session (expected reaction to LSD)” value ([2]; first LSD session, 200 μg) was “one”. For the same molecule, the “common cold, total of reported AEs” value [2, 8] was 7, the “depression, total of reported AEs” value [2, 8] was 3 and the “difficulty concentrating, total of reported AEs” value [2, 8] was 5. For the same molecule, the “headache, total of reported AEs” value [2, 8] was 6, the “nausea, total of reported AEs” value [2, 8] was 3 and the “vertigo, total of reported AEs” value [2, 8] was 5. For the same molecule, the “activity at adrenergic α1 receptors” value (adrenergic α1 receptors) was “stimulates”, the “emotional empathy and prosociality” value (healthy participants) was “enhancing” and the “recognition of fearful and sad faces” value (healthy participants) was “decreasing”. The “time to maximal concentrations of LSD” value ([3]; 16 healthy subjects) was 1.5 h and the half-life ([3]; first-order kinetics up to 12 hours) was 3.6 h.
